Assay results taken from PubChem BioAssay (NCI).
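Exposure lasted 48 hours, with cells grown in 96-well plates and compounds tested at five concentrations. GI50: concentration for 50% inhibition of growth. TGI: total growth inhibition.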

Legend:
Assay in all cases: NCI-60 cell line screen, 48 h
[1] = system: UACC-62 melanoma
[2] = system: CAKI-1 renal
[3] = system: EKVX NSCLC
[4] = system: HCC-2998 colon
[5] = system: MALME-3M melanoma
[6] = system: T-47D breast
[7] = system: 786-0 renal
[8] = system: CCRF-CEM leukemia
[9] = system: SK-OV-3 ovarian
[10] = system: HOP-62 NSCLC
[11] = system: NCI-H522 lung
[12] = system: HT29 colon
[13] = system: DU-145 prostate
[14] = system: SNB-75 CNS
[15] = system: RPMI-8226 leukemia
[16] = system: OVCAR-4 ovarian
[17] = system: MDA-MB-231 breast
[18] = system: COLO 205 colon
[19] = system: UACC-257 melanoma
[20] = system: OVCAR-5 ovarian
[21] = system: SK-MEL-2 melanoma
[22] = system: SK-MEL-28 melanoma
[23] = system: MDA-MB-435
[24] = system: HCT-15 colon
[25] = system: LOX IMVI melanoma
[26] = system: OVCAR-3 ovarian
[27] = system: HS 578T breast
[28] = system: NCI-H226 lung
[29] = system: A498 renal
[30] = system: HL-60(TB) leukemia
[31] = system: IGROV1 ovarian
[32] = system: M14 melanoma
[33] = system: TK-10 renal
[34] = system: SF-295 CNS
[35] = system: SR leukemia
[36] = system: PC-3 prostate
[37] = system: K-562 leukemia
[38] = system: RXF 393 renal
[39] = system: ACHN renal
[40] = system: SW-620 colon
[41] = system: U251 CNS
[42] = system: NCI/ADR-RES ovarian
[43] = system: OVCAR-8 ovarian
[44] = system: HCT-116 colon
[45] = system: NCI-H23 lung
[46] = system: BT-549 breast
[47] = system: SK-MEL-5 melanoma
[48] = system: A549 NSCLC
[49] = system: SN12C renal
[50] = system: SF-539 CNS
[51] = system: KM12 colon
[52] = system: HOP-92 NSCLC
[53] = system: UO-31 renal
[54] = system: MOLT-4 leukemia
[55] = system: NCI-H460 lung
[56] = system: SF-268 CNS
[57] = system: SNB-19 CNS
[58] = system: MCF7 breast

`CO/N=C(\COc1ccc2c(=O)cc(-c3ccccc3)oc2c1)c1ccc(OC)cc1` was tested, and the GI50 [1] was > 100 µM, the TGI [1] was > 100 µM and the GI50 [2] was 24.9 µM. For the same compound, the TGI [2] was 70.3 µM, the GI50 [3] was > 100 µM and the TGI [3] was > 100 µM. The GI50 [4] was > 100 µM, the TGI [4] was > 100 µM and the GI50 [5] was > 100 µM. For the same compound, the TGI [5] was > 100 µM, the GI50 [6] was 53.5 µM and the TGI [6] was > 100 µM. For the same compound, the GI50 [7] was > 100 µM, the TGI [7] was > 100 µM and the GI50 [8] was > 100 µM. The TGI [8] was > 100 µM, the GI50 [9] was > 100 µM and the TGI [9] was > 100 µM. The GI50 [10] was > 100 µM, the TGI [10] was > 100 µM and the GI50 [11] was > 100 µM. For the same compound, the TGI [11] was > 100 µM, the GI50 [12] was > 100 µM and the TGI [12] was > 100 µM. For the same compound, the GI50 [13] was > 100 µM, the TGI [13] was > 100 µM and the GI50 [14] was 38.2 µM. The TGI [14] was > 100 µM, the GI50 [15] was 74 µM and the TGI [15] was > 100 µM. For the same compound, the GI50 [16] was 56.2 µM, the TGI [16] was > 100 µM and the GI50 [17] was 48.4 µM. For the same compound, the TGI [17] was > 100 µM, the GI50 [18] was > 100 µM and the TGI [18] was > 100 µM. The GI50 [19] was > 100 µM, the TGI [19] was > 100 µM and the GI50 [20] was > 100 µM. The TGI [20] was > 100 µM, the GI50 [21] was > 100 µM and the TGI [21] was > 100 µM. The GI50 [22] was > 100 µM, the TGI [22] was > 100 µM and the GI50 [23] was 30 µM. For the same compound, the TGI [23] was > 100 µM, the GI50 [24] was > 100 µM and the TGI [24] was > 100 µM. The GI50 [25] was > 100 µM, the TGI [25] was > 100 µM and the GI50 [26] was 23.2 µM. The TGI [26] was 44.8 µM, the GI50 [27] was > 100 µM and the TGI [27] was > 100 µM. The GI50 [28] was > 100 µM, the TGI [28] was > 100 µM and the GI50 [29] was 90.9 µM. For the same compound, the TGI [29] was > 100 µM, the GI50 [30] was > 100 µM and the TGI [30] was > 100 µM. The GI50 [31] was > 100 µM, the TGI [31] was > 100 µM and the GI50 [32] was > 100 µM. For the same compound, the TGI [32] was > 100 µM, the GI50 [33] was > 100 µM and the TGI [33] was > 100 µM. For the same compound, the GI50 [34] was 21 µM, the TGI [34] was 46.5 µM and the GI50 [35] was > 100 µM. The TGI [35] was > 100 µM, the GI50 [36] was > 100 µM and the TGI [36] was > 100 µM. The GI50 [37] was > 100 µM, the TGI [37] was > 100 µM and the GI50 [38] was > 100 µM. The TGI [38] was > 100 µM, the GI50 [39] was > 100 µM and the TGI [39] was > 100 µM. For the same compound, the GI50 [40] was > 100 µM, the TGI [40] was > 100 µM and the GI50 [41] was > 100 µM. The TGI [41] was > 100 µM, the GI50 [42] was > 100 µM and the TGI [42] was > 100 µM. The GI50 [43] was > 100 µM, the TGI [43] was > 100 µM and the GI50 [44] was > 100 µM. The TGI [44] was > 100 µM, the GI50 [45] was > 100 µM and the TGI [45] was > 100 µM. For the same compound, the GI50 [46] was > 100 µM, the TGI [46] was > 100 µM and the GI50 [47] was > 100 µM. The TGI [47] was > 100 µM, the GI50 [48] was > 100 µM and the TGI [48] was > 100 µM. For the same compound, the GI50 [49] was 88.2 µM, the TGI [49] was > 100 µM and the GI50 [50] was > 100 µM. The TGI [50] was > 100 µM, the GI50 [51] was 81.4 µM and the TGI [51] was > 100 µM. The GI50 [52] was 20.2 µM, the TGI [52] was 96.4 µM and the GI50 [53] was > 100 µM. The TGI [53] was > 100 µM.

With `COc1ccc(CNCCCN2C(=O)c3ccc4c5c(ccc(c35)C2=O)C(=O)N(CCCNCCCCNCCCN)C4=O)c(OC)c1OC` the GI50 [1] was 1.48 µM, the TGI [1] was 4.37 µM and the GI50 [2] was 4.49 µM. The TGI [2] was 44.9 µM, the GI50 [3] was 4.05 µM and the TGI [3] was 19.3 µM. For the same compound, the GI50 [4] was 1.67 µM, the TGI [4] was 4.79 µM and the GI50 [5] was 1.21 µM. The TGI [5] was 2.76 µM, the GI50 [6] was 0.335 µM and the TGI [6] was 1.88 µM. For the same compound, the GI50 [7] was 3.53 µM, the TGI [7] was 22.5 µM and the GI50 [8] was 1.94 µM. The TGI [8] was 17.8 µM, the GI50 [9] was 3.18 µM and the TGI [9] was 83.2 µM. For the same compound, the GI50 [10] was 1.4 µM, the TGI [10] was 8.97 µM and the GI50 [54] was 1.53 µM. For the same compound, the TGI [54] was 15.6 µM, the GI50 [12] was 0.452 µM and the TGI [12] was 3.23 µM. The GI50 [55] was 0.703 µM, the TGI [55] was 7.03 µM and the GI50 [13] was 1.55 µM. For the same compound, the TGI [13] was 3.44 µM, the GI50 [14] was 1.27 µM and the TGI [14] was 3.63 µM. It also gave a GI50 [15] of 2.7 µM, a TGI [15] of 12.2 µM and a GI50 [16] of 1.02 µM. For the same compound, the TGI [16] was 3.08 µM, the GI50 [17] was 2.44 µM and the TGI [17] was 18 µM. The GI50 [18] was 0.194 µM, the TGI [18] was 0.391 µM and the GI50 [19] was 0.334 µM. It also gave a TGI [19] of 1.38 µM, a GI50 [56] of 0.955 µM and a TGI [56] of 13.2 µM. For the same compound, the GI50 [21] was 1.72 µM, the TGI [21] was 4.11 µM and the GI50 [22] was 1.89 µM. For the same compound, the TGI [22] was 4.81 µM, the GI50 [23] was 1.17 µM and the TGI [23] was 6.57 µM. For the same compound, the GI50 [24] was 2.76 µM, the TGI [24] was 7.94 µM and the GI50 [25] was 0.654 µM. The TGI [25] was 7.83 µM, the GI50 [26] was 1.17 µM and the TGI [26] was 2.48 µM. The GI50 [27] was 7.52 µM, the TGI [27] was 43.4 µM and the GI50 [28] was 2.11 µM. The TGI [28] was 16.4 µM, the GI50 [29] was 5.5 µM and the TGI [29] was 23.1 µM. It also gave a GI50 [30] of 2.73 µM, a TGI [30] of 13.1 µM and a GI50 [31] of 1.54 µM. The TGI [31] was 12.5 µM, the GI50 [32] was 1.66 µM and the TGI [32] was 3.57 µM. It also gave a GI50 [33] of 2.71 µM, a TGI [33] of 12.8 µM and a GI50 [34] of 2.35 µM. The TGI [34] was 15.9 µM, the GI50 [35] was 1.31 µM and the TGI [35] was 17.4 µM. It also gave a GI50 [36] of 2.4 µM, a TGI [36] of 26.3 µM and a GI50 [37] of 0.761 µM. It also gave a TGI [37] of 12.7 µM, a GI50 [38] of 1.36 µM and a TGI [38] of 3.67 µM. It also gave a GI50 [40] of 0.448 µM, a TGI [40] of 2.52 µM and a GI50 [57] of 1.42 µM. It also gave a TGI [57] of 11.4 µM, a GI50 [41] of 0.63 µM and a TGI [41] of 2.97 µM. It also gave a GI50 [42] of 6.01 µM, a TGI [42] of 49.7 µM and a GI50 [43] of 0.618 µM. It also gave a TGI [43] of 8.2 µM, a GI50 [44] of 0.534 µM and a TGI [44] of 3.77 µM. It also gave a GI50 [58] of 0.355 µM, a TGI [58] of 1.62 µM and a GI50 [45] of 1.35 µM. For the same compound, the TGI [45] was 4.22 µM, the GI50 [46] was 6.13 µM and the TGI [46] was 21.5 µM. The GI50 [48] was 1.69 µM, the TGI [48] was 16.1 µM and the GI50 [50] was 2.23 µM. For the same compound, the TGI [50] was 5.3 µM, the GI50 [51] was 1.27 µM and the TGI [51] was 7.53 µM. For the same compound, the GI50 [53] was 4.84 µM and the TGI [53] was > 100 µM.
